Measured values from PubChem BioAssay AID2060889 (Molecular Pharmacology Branch, DTP, NCI, 2025).

Tested on: LG0567-F671-PDC complex spheroids viability
Assay: Anticancer human tumor LG0567-F671-PDC patient-derived lung adenocarcinoma cell line growth inhibition [RAS]
Settings: for IC50: curve of first compound; for viability, T/C: stronger effect = lower value
In short: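 Agents were tested in combination matrices in half-log decrements from a top concentration at or near clinical Cmax (10 microM if undetermined). Targets were multi-cell spheroids of tumour lines plus HUVEC and MSC stromal cells.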

[1] = second compound 0.000949 µM, first compound 0.0316 µM
[2] = second compound 0.000949 µM, first compound 0.1 µM
[3] = second compound 0.000949 µM, first compound 0.316 µM
[4] = second compound 0.000949 µM, first compound 1 µM
[5] = second compound 0.003 µM, first compound 0.0316 µM
[6] = second compound 0.003 µM, first compound 0.1 µM
[7] = second compound 0.003 µM, first compound 0.316 µM
[8] = second compound 0.003 µM, first compound 1 µM
[9] = second compound 0.00949 µM, first compound 0.0316 µM
[10] = second compound 0.00949 µM, first compound 0.1 µM
[11] = second compound 0.00949 µM, first compound 0.316 µM
[12] = second compound 0.00949 µM, first compound 1 µM
[13] = second compound 0.03 µM, first compound 0.0316 µM
[14] = second compound 0.03 µM, first compound 0.1 µM
[15] = second compound 0.03 µM, first compound 0.316 µM
[16] = second compound 0.03 µM, first compound 1 µM
[17] = second compound 0.0949 µM, first compound 0.0316 µM
[18] = second compound 0.0949 µM, first compound 0.1 µM
[19] = second compound 0.0949 µM, first compound 0.316 µM
[20] = second compound 0.0949 µM, first compound 1 µM
[21] = second compound 0.3 µM, first compound 0.0316 µM
[22] = second compound 0.3 µM, first compound 0.1 µM
[23] = second compound 0.3 µM, first compound 0.316 µM
[24] = second compound 0.3 µM, first compound 1 µM
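Further: spheroids exposed to compound for seven days before readout.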
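Wherever IC50 is given: luminescence signal used as a proxy for viable cells.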

SMILES: CCN1CCN(Cc2ccc(Nc3ncc(F)c(-c4cc(F)c5nc(C)n(C(C)C)c5c4)n3)nc2)CC1 + CCn1c(-c2cccnc2C(C)OC)c2c3cc(ccc31)N1CCOC(CC(NC(=O)C(C(C)C)N(C)C(=O)C3(F)CCN(C(=O)C#CC(C)(C)N(C)C)CC3)C(=O)N3CCCC(N3)C(=O)OCC(C)(C)C2)C1
- IC50 (second compound 0.000949 µM): < 3.16 nM
- IC50 (second compound 0.003 µM): < 3.16 nM
- IC50 (second compound 0.00949 µM): < 3.16 nM
- IC50 (second compound 0.03 µM): < 3.16 nM
- IC50 (second compound 0.0949 µM): < 3.16 nM
- IC50 (second compound 0.3 µM): < 3.16 nM
- viability, T/C (second compound 0.000949 µM, first compound 0.00316 µM): 15%
- viability, T/C (second compound 0.000949 µM, first compound 0.01 µM): 15.8%
- viability, T/C [1]: 14.2%
- viability, T/C [2]: 14.7%
- viability, T/C [3]: 18.1%
- viability, T/C [4]: 17.5%
- viability, T/C (second compound 0.003 µM, first compound 0.00316 µM): 14.2%
- viability, T/C (second compound 0.003 µM, first compound 0.01 µM): 16.5%
- viability, T/C [5]: 13%
- viability, T/C [6]: 15.9%
- viability, T/C [7]: 18.7%
- viability, T/C [8]: 19.9%
- viability, T/C (second compound 0.00949 µM, first compound 0.00316 µM): 15.2%
- viability, T/C (second compound 0.00949 µM, first compound 0.01 µM): 13.4%
- viability, T/C [9]: 14.1%
- viability, T/C [10]: 14.8%
- viability, T/C [11]: 16.5%
- viability, T/C [12]: 17.4%
- viability, T/C (second compound 0.03 µM, first compound 0.00316 µM): 13.1%
- viability, T/C (second compound 0.03 µM, first compound 0.01 µM): 12.9%
- viability, T/C [13]: 13.7%
- viability, T/C [14]: 13.9%
- viability, T/C [15]: 16.8%
- viability, T/C [16]: 16.5%
- viability, T/C (second compound 0.0949 µM, first compound 0.00316 µM): 16%
- viability, T/C (second compound 0.0949 µM, first compound 0.01 µM): 13.3%
- viability, T/C [17]: 11.8%
- viability, T/C [18]: 12.2%
- viability, T/C [19]: 15%
- viability, T/C [20]: 15.1%
- viability, T/C (second compound 0.3 µM, first compound 0.00316 µM): 10.5%
- viability, T/C (second compound 0.3 µM, first compound 0.01 µM): 9.89%
- viability, T/C [21]: 10.4%
- viability, T/C [22]: 10.7%
- viability, T/C [23]: 13.8%
- viability, T/C [24]: 11.4%

SMILES: C[C@@H](NC(=O)c1ncnc(N)c1Cl)c1ncc(C(=O)Nc2cc(C(F)(F)F)c(Cl)cn2)s1 + CCn1c(-c2cccnc2C(C)OC)c2c3cc(ccc31)N1CCOC(CC(NC(=O)C(C(C)C)N(C)C(=O)C3(F)CCN(C(=O)C#CC(C)(C)N(C)C)CC3)C(=O)N3CCCC(N3)C(=O)OCC(C)(C)C2)C1
- IC50 (second compound 0.000949 µM): < 31.6 nM
- IC50 (second compound 0.003 µM): < 31.6 nM
- IC50 (second compound 0.00949 µM): < 31.6 nM
- IC50 (second compound 0.03 µM): < 31.6 nM
- IC50 (second compound 0.0949 µM): < 31.6 nM
- IC50 (second compound 0.3 µM): < 31.6 nM
- viability, T/C [1]: 17.3%
- viability, T/C [2]: 19.9%
- viability, T/C [3]: 20.6%
- viability, T/C [4]: 24.5%
- viability, T/C (second compound 0.000949 µM, first compound 3.16 µM): 23.5%
- viability, T/C (second compound 0.000949 µM, first compound 10 µM): 23.9%
- viability, T/C [5]: 17.1%
- viability, T/C [6]: 17.9%
- viability, T/C [7]: 21.1%
- viability, T/C [8]: 21%
- viability, T/C (second compound 0.003 µM, first compound 3.16 µM): 25.6%
- viability, T/C (second compound 0.003 µM, first compound 10 µM): 23.6%
- viability, T/C [9]: 20.9%
- viability, T/C [10]: 18.6%
- viability, T/C [11]: 19.2%
- viability, T/C [12]: 22.4%
- viability, T/C (second compound 0.00949 µM, first compound 3.16 µM): 22.4%
- viability, T/C (second compound 0.00949 µM, first compound 10 µM): 24%
- viability, T/C [13]: 16.7%
- viability, T/C [14]: 17.1%
- viability, T/C [15]: 22.9%
- viability, T/C [16]: 20.3%
- viability, T/C (second compound 0.03 µM, first compound 3.16 µM): 21.6%
- viability, T/C (second compound 0.03 µM, first compound 10 µM): 22.2%
- viability, T/C [17]: 14.4%
- viability, T/C [18]: 15.5%
- viability, T/C [19]: 17.5%
- viability, T/C [20]: 19.6%
- viability, T/C (second compound 0.0949 µM, first compound 3.16 µM): 19.8%
- viability, T/C (second compound 0.0949 µM, first compound 10 µM): 21.8%
- viability, T/C [21]: 13%
- viability, T/C [22]: 14.8%
- viability, T/C [23]: 14.2%
- viability, T/C [24]: 17.2%
- viability, T/C (second compound 0.3 µM, first compound 3.16 µM): 19.5%
- viability, T/C (second compound 0.3 µM, first compound 10 µM): 19.1%
